Source: ChEMBL document CHEMBL1130852, “In vitro evaluation and crystallographic analysis of a new class of selective, non-amide-based thrombin inhibitors” (Bioorg Med Chem Lett, 1998)
Values joined by “and” are separate entries in the source; they are usually repeats but may differ in a detail not shown here. Identical values can stand only once.

Columns and labels:
[1] = biological target: Plasminogen (Homo sapiens, UniProt P00747); assay: Compound was tested in vitro for its ability to inhibit serine protease plasmin using tosyl-Gly-Pro-Lys-p-nitroanilide as substrate
Chain of Plasminogen (P00747 97-580 limits assumed): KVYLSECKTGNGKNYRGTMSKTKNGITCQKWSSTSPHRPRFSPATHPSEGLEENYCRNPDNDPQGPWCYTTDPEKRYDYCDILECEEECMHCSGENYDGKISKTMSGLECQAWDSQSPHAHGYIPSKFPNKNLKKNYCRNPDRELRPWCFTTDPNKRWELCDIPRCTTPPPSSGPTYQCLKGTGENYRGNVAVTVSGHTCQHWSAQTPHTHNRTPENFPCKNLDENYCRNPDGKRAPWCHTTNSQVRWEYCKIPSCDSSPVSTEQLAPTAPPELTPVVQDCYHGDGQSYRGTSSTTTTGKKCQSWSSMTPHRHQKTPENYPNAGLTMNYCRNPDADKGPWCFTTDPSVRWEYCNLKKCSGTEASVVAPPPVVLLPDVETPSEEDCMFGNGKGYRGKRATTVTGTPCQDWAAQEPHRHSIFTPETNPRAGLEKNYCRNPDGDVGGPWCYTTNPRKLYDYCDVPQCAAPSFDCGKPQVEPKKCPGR
Chain of Plasminogen (P00747 581-810 limits assumed): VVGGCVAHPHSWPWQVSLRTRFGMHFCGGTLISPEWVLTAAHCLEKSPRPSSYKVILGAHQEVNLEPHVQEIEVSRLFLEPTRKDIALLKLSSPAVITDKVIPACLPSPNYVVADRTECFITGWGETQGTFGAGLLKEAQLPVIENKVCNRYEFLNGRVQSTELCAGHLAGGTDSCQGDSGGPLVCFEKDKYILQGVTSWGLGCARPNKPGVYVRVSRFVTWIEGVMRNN

[2] = biological target: Prothrombin (Homo sapiens, UniProt P00734); assay: Compound was tested in vitro for its ability to inhibit serine protease thrombin using […] as substrate
[3] = biological target: Urokinase-type plasminogen activator (Homo sapiens, UniProt P00749); assay: (§1) Compound was tested in vitro for its ability to inhibit serine protease urokinase using carbobenzyloxy-Phe-Val-Arg-p-nitroanilide as substrate
[4] = Compound was tested in vitro for its ability to inhibit serine protease elastase using suc-Ala-Ala-Pro-Val-p-nitroanilide as substrate
[5] = biological target: Coagulation factor X (Homo sapiens, UniProt P00742); assay: Compound was tested in vitro for its ability to inhibit serine protease factor Xa using benzoyl-Ile-Glu-Gly-Arg-p-nitroanilide as substrate
Chain of Coagulation factor X (P00742 41-179 limits assumed): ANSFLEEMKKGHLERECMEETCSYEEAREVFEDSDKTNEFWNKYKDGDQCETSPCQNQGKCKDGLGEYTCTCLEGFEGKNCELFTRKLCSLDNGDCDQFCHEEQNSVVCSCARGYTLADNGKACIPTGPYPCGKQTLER
Chain of Coagulation factor X (P00742 235-488 limits assumed): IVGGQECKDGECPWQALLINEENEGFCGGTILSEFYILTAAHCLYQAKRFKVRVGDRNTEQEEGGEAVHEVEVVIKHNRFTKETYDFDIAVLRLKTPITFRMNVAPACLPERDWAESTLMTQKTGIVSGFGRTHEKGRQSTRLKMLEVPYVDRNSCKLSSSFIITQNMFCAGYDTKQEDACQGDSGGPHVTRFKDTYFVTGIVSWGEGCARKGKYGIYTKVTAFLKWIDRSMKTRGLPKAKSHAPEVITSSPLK

[6] = tested on: CC(C)[C@H](NC(=O)[C@H](Cc1ccccc1)NC(=O)OCc1ccccc1)C(=O)N[C@@H](CCCN=C(N)N)C(=O)Nc1ccc([N+](=O)[O-])cc1; assay: as §1
[7] = compound: C[C@H](NC(=O)CCC(=O)O)C(=O)N[C@@H](C)C(=O)N1CCC[C@H]1C(=O)N[C@@H](Cc1ccccc1)C(=O)Nc1ccc([N+](=O)[O-])cc1; assay: Compound was tested in vitro for its ability to inhibit serine protease Chymotrypsinogen using suc-Ala-Ala-Pro-Phe-p-nitroanilide as substrate
[8] = compound: CC(C)[C@H](NC(=O)[C@H](Cc1ccccc1)NC(=O)c1ccccc1)C(=O)N[C@@H](CCCN=C(N)N)C(=O)Nc1ccc([N+](=O)[O-])cc1; assay: Compound was tested in vitro for its ability to inhibit serine protease trypsin using benzoyl-Phe-Val-Arg-p-nitroanilide as substrate; conditions: Bos taurus

Ki [1] [µM] | Ki [2] [µM] | Ki [3] [µM] | Ki [4] [µM] | Ki [5] [µM] | Molecule | Km [6] | Km [7] | Km [8]
> 200 | 0.26 | > 200 | > 200 | 120 | Cc1cc(OCCCCCN=C(N)N)cc(OS(=O)(=O)c2ccccc2Cl)c1 | – | – | –
> 200 | 0.033 | > 200 | > 200 | > 200 | Cc1cc(OCCCN=C(N)N)cc(OS(=O)(=O)c2ccccc2Cl)c1 | – | – | –
> 200 | 0.0046 | > 200 | > 200 | 80 | Cc1cc(OCC2CCN(C(=N)N)CC2)cc(OS(=O)(=O)c2ccccc2Cl)c1 | – | – | –
> 200 | – | > 200 | > 200 | 110 | Cc1cc(OCCCCN=C(N)N)cc(OS(=O)(=O)c2ccccc2Cl)c1 | – | – | –
> 200 | – | > 200 | > 200 | 160 | Cc1cc(OCCN(C)c2ccncc2)cc(OS(=O)(=O)c2ccccc2Cl)c1 | – | – | –
– | – | – | – | – | Urokinase-type plasminogen activator (Homo sapiens) (from UniProt P00749) | 190 µM and 170 µM | – | –
> 200 | 0.32 | > 200 | > 200 | 29 | Cc1cc(OCC2CCCN(C(=N)N)C2)cc(OS(=O)(=O)c2ccccc2Cl)c1 (stereo unspecified) | – | – | –
– | – | – | – | – | Chymotrypsin-C (Homo sapiens), Q99895 (protein) MLGITVLAALLACASSCGVPSFPPNLSARVVGGEDARPHSWPWQISLQYLKNDTWRHTCGGTLIASNFVLTAAHCISNTRTYRVAVGKNNLEVEDEEGSLFVGVDTIHVHKRWNALLLRNDIALIKLAEHVELSDTIQVACLPEKDSLLPKDYPCYVTGWGRLWTNGPIADKLQQGLQPVVDHATCSRIDWWGFRVKKTMVCAGGDGVISACNGDSGGPLNCQLENGSWEVFGIVSFGSRRGCNTRKKPVVYTRVSAYIDWINEKMQL | – | 60 µM and 100 µM | –
– | – | – | – | – | Serine protease 1 (Bos taurus), P00760 (protein) MKTFIFLALLGAAVAFPVDDDDKIVGGYTCGANTVPYQVSLNSGYHFCGGSLINSQWVVSAAHCYKSGIQVRLGEDNINVVEGNEQFISASKSIVHPSYNSNTLNNDIMLIKLKSAASLNSRVASISLPTSCASAGTQCLISGWGNTKSSGTSYPDVLKCLKAPILSDSSCKSAYPGQITSNMFCAGYLEGGKDSCQGDSGGPVVCSGKLQGIVSWGSGCAQKNKPGVYTKVCNYVSWIKQTIASN | – | – | 160 µM and 100 µM
